Results from US20220016125A1, “RIBOFLAVIN FOR TREATING COLLAGENOUS TISSUES IN THE DISEASES OF JOINTS, PARTICULARLY OF INVERTEBRAL DISCS” (Albert-Ludwigs-Universitat Freiburg, priority 2018, published 2022).

Legend:
[1] = test system: collagen fibers in the transition zone between the annulus fibrosus and nucleus pulposus; assay: Riboflavin/UV crosslinking of collagen fibers in human intervertebral disc cryosections, autofluorescence microscopy; details: 10 human samples, 0.6 mm slices; 0.1 mL of 0.25% riboflavin solution twice at 30 s interval; UV 370 nm, 9 mW/cm^2, two minutes
Experimental: (§1) Five freshly frozen bovine intervertebral discs and two freshly frozen human intervertebral discs from the Anatomy department of the University of Freiburg were used for the experiments (see FIG. 6).
(§2) The intervertebral discs were thinly cut into 0.6 mm thick slices using a cryomicrotome and placed on glass plates (see FIG. 7). The thin discs arise from the transition zone between the annulus fibrosus and nucleus pulposus, which is indicated by a rectangle in FIG. 6.
(§3) A total of 10 bovine and 10 human samples were prepared and examined for the experiments.
(§4) Before treatment with riboflavin, the samples were imaged by autofluorescence microscopy to visualize the collagen fibers. The architecture, orientation and crosslinking density of the collagen fibers in the samples before treatment are shown in FIGS. 9 a) and 10 a).
(§5) To crosslink the collagen fibers, 0.1 mL of a riboflavin solution at a concentration of 0.25% was administered twice at a time interval of 30 seconds. The sample was then irradiated with UV light.
(§6) A UV radiation source with an average wavelength of 370 nm (365-375 nm) was used to irradiate the samples. […]
(§7) After the treatment, the collagen fibers were reimaged using autofluorescence microscopy in order to visualize the identical sample area. This allows changes in the crosslinking density of the collagen fibers to be detected.

[2] = test system: collagen fibers in the transition zone between the annulus fibrosus and nucleus pulposus; assay: Riboflavin/UV crosslinking of collagen fibers in bovine intervertebral disc cryosections, autofluorescence microscopy; details: 10 bovine samples, 0.6 mm slices; 0.1 mL of 0.25% riboflavin solution twice at 30 s interval; UV 370 nm, 9 mW/cm^2, two minutes
Experimental: as §1, §2, §3, §4, §5, §6, §7

[3] = test system: bovine intervertebral discs; assay: Young's modulus of fresh bovine intervertebral discs before and after UV irradiation (Biomomentum Mach-1); details: 8 mM riboflavin (riboflavin 5′-phosphate sodium salt hydrate) in PBS, 15 min soak, 365 nm UVA, 3.5 mW/cm^2, 15 minutes
Experimental: For the characterization, Young's modulus or modulus of elasticity (Akhtar et. Al 2011) was determined locally on an established device (Biomomentum Mach-1 Biomomentum Inc.; Sim et al. 2014).
Fresh bovine tails were provided from the local meat processing plant within 2 hours of slaughter. The paravertebral structure was removed (FIG. 11).
Bovine intervertebral discs (IVDs), which are attached to the vertebral body, were isolated (FIG. 12).
In order to stabilize the samples on the device, the bovine vertebral bodies with attached intervertebral discs were fixed in PMMA bone cement (FIG. 13).
With the aid of the camera of the Biomomentum device, the surface of the bovine intervertebral discs was measured with respect to their biomechanical properties (Young's modulus) (FIG. 14).
A solution with 8 mM riboflavin (riboflavin 5′-phosphate sodium salt hydrate, Sigmaaldrich) in PBS (phosphate buffered saline solution) and pH: 7.4 water (Thermofisher) was used to soak the exposed surface of the bovine intervertebral discs for 15 minutes (dark mode). Immediately afterwards, the samples were placed in the Biomomentum device for analysis (dark mode).
After the analysis, the same sample was irradiated homogeneously with 365 nm UVA light (Opsytech Dr. Groebel-UV LED series L) at 3.5 mW/cm^2 for 15 minutes. A second analysis of the previously measured positions followed.
A total of 38 measurements were carried out on 15 healthy bovine intervertebral discs.
The percentage stiffening corresponds to the percentage increase in Young's modulus after UV irradiation, compared to the value measured before UV irradiation.

[4] = compared to value before UV irradiation

What does the source list for `Cc1cc2nc3c(=O)[nH]c(=O)nc-3n(C[C@H](O)[C@H](O)[C@H](O)CO)c2cc1C` [riboflavin, 7,8-dimethyl-10-(D-ribit-1-yl)-isoalloxazine]?
crosslinking density of the collagen fibers [1]: visually evident increase in the crosslinking density; crosslinking density of the collagen fibers [2]: visually evident increase in the crosslinking density; elastic properties (Young's modulus) after UV irradiation ([3]; 38 measurements on 15 discs): Stiffening or reinforcement of the elastic properties (Young's modulus) was observed in all samples; maximum stiffening (percentage increase in Young's modulus after UV irradiation) [3, 4]: 348%; minimum stiffening or reinforcement (percentage increase in Young's modulus after UV irradiation) [3, 4]: 52%
